For the assay, the system named is EGFR (Del19/T790M/C797S). Description: Cell degradation HTRF assay, H1975-clone #28 cells. The class given is cell-based. Particulars: H1975-clone #28 (Del19/T790M/C797S) cells, 16 h treatment; for DC50: HTRF, read-out: H1975-clone#28 DTC DC50; for H1975-clone#28 DTC Dmax (%): maximum percentage of degradation. A digest of the protocol: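 H1975 clones #25 and #28 were treated 16 h at 37° C, 5% CO2 with 8 doses (top 10 uM, 5-fold dilution) in 0.2% DMSO medium. EGFR in lysates read by HTRF (665/620 nm); degradation % relative to DMSO high control; DC50 from 4-parameter fit, Dmax = maximal degradation.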
For orientation: TR-FRET usually uses a lanthanide donor and a delayed reading to cut background.

The structures appear in SMILES notation.

As a reminder, the DC50 is the concentration at which degradation of the target reaches its halfway point. Take `COc1cc(N2CCC(N3CCN(C(=O)C4CN(c5cccc6c5n(C)c(=O)n6C5CCC(=O)NC5=O)C4)CC3)CC2)c(C)cc1Nc1ncc(Br)c(Nc2cnc3ccccc3c2P(C)(C)=O)n1` (stereo not shown) [Example 179, 3-(4-(3-(4-(1-(4-((5-bromo-4-((4-(dimethylphosphoryl)quinolin-3-yl)amino)pyrimidin-2-yl)amino)-5-methoxy-2-methylphenyl)piperidin-4-yl)piperazine-1-carbonyl)azetidin-1-yl)-3-methyl-2-oxo-2,3-dihydro-1H-benzo[d]imidazol-1-yl)piperidine-2,6-dione]: the 50% degradation concentration (DC50) came out at 2.6 nM and the “H1975-clone#28 DTC Dmax (%)” value is given as 54%.
The corresponding values for `CCc1cc(Nc2ncc(Br)c(Nc3cnc4ccccc4c3P(C)(C)=O)n2)c(OC)cc1N1CCC(N2CCN(CCc3cc(F)c(C4CCC(=O)NC4=O)c(F)c3F)CC2)CC1` (stereo not shown) [Example 180, 3-(4-(2-(4-(1-(4-((5-bromo-4-((4-(dimethylphosphoryl)quinolin-3-yl)amino)pyrimidin-2-yl)amino)-2-ethyl-5-methoxyphenyl)piperidin-4-yl)piperazin-1-yl)ethyl)-2,3,6-trifluorophenyl)piperidine-2,6-dione] are 2 nM and 83%.
In the case of `CCc1cc(Nc2ncc(Br)c(Nc3cnc4c(F)cccc4c3P(C)(C)=O)n2)c(OC)cc1N1CCC(N2CCN(CCc3cc(F)c(C4CCC(=O)NC4=O)c(F)c3)CC2)CC1` (stereo not shown) [Example 181, 3-(4-(2-(4-(1-(4-((5-bromo-4-((4-(dimethylphosphoryl)-8-fluoroquinolin-3-yl)amino)pyrimidin-2-yl)amino)-2-ethyl-5-methoxyphenyl)piperidin-4-yl)piperazin-1-yl)ethyl)-2,6-difluorophenyl)piperidine-2,6-dione], the DC50 came to 4.2 nM and the “H1975-clone#28 DTC Dmax (%)” value is recorded as 82%.
The like results for `CCc1cc(Nc2ncc(Br)c(Nc3cnc4c(F)cccc4c3P(C)(C)=O)n2)c(OC)cc1N1CCC(N2CCN(C(=O)C3CCN(c4ccc5c(c4)C(C)(C)C(=O)N5C4CCC(=O)NC4=O)CC3)CC2)CC1` (stereo not shown) [Example 182, 3-(5-(4-(4-(1-(4-((5-bromo-4-((4-(dimethylphosphoryl)-8-fluoroquinolin-3-yl)amino)pyrimidin-2-yl)amino)-2-ethyl-5-methoxyphenyl)piperidin-4-yl)piperazine-1-carbonyl)piperidin-1-yl)-3,3-dimethyl-2-oxoindolin-1-yl)piperidine-2,6-dione] were, in that order, 0.8 nM and 56%.
The like results for `CCOc1cc(N2CCC(N3CCN(CCc4cc(F)c(C5CCC(=O)NC5=O)c(F)c4)CC3)CC2)c(C)cc1Nc1ncc(Br)c(Nc2cnc3ccccc3c2P(C)(C)=O)n1` (stereo not shown) [Example 183, 3-(4-(2-(4-(1-(4-((5-bromo-4-((4-(dimethylphosphoryl)quinolin-3-yl)amino)pyrimidin-2-yl)amino)-5-ethoxy-2-methylphenyl)piperidin-4-yl)piperazin-1-yl)ethyl)-2,6-difluorophenyl)piperidine-2,6-dione] were, in that order, 4.6 nM and 73%.
For the compound `CCc1cc(Nc2ncc(Br)c(Nc3cnc4ccccc4c3P(C)(C)=O)n2)c(OC)cc1N1CCC(N2CCN([C@H]3C[C@H](c4cc(F)c(C5CCC(=O)NC5=O)c(F)c4)C3)CC2)CC1` (stereo partly shown) [Example 184, 3-(4-((1r,3r)-3-(4-(1-(4-((5-bromo-4-((4-(dimethylphosphoryl)quinolin-3-yl)amino)pyrimidin-2-yl)amino)-2-ethyl-5-methoxyphenyl)piperidin-4-yl)piperazin-1-yl)cyclobutyl)-2,6-difluorophenyl)piperidine-2,6-dione], the 50% degradation concentration (DC50) stood at 1.5 nM and the “H1975-clone#28 DTC Dmax (%)” value turned out to be 81%.
Take `CCc1cc(Nc2ncc(Br)c(Nc3cnc4ccccc4c3P(C)(C)=O)n2)c(OC)cc1N1CCC(N2CCN(C(=O)C3CCN(c4cc(F)c(C5CCC(=O)NC5=O)c(F)c4)CC3)CC2)CC1` (stereo not shown) [Example 185, 3-(4-(4-(4-(1-(4-((5-bromo-4-((4-(dimethylphosphoryl)quinolin-3-yl)amino)pyrimidin-2-yl)amino)-2-ethyl-5-methoxyphenyl)piperidin-4-yl)piperazine-1-carbonyl)piperidin-1-yl)-2,6-difluorophenyl)piperidine-2,6-dione]: the half-maximal degradation concentration (DC50) amounted to 1.2 nM and the “H1975-clone#28 DTC Dmax (%)” value is listed as 71%.
The corresponding values for `CCc1cc(Nc2ncc(Br)c(Nc3cnc4ccccc4c3P(C)(C)=O)n2)c(OCC(F)(F)F)cc1N1CCC(N2CCN(CCC3CCN(c4cc(F)c(C5CCC(=O)NC5=O)c(F)c4)CC3)CC2)CC1` (stereo not shown) [Example 186, 3-(4-(4-(2-(4-(1-(4-((5-bromo-4-((4-(dimethylphosphoryl)quinolin-3-yl)amino)pyrimidin-2-yl)amino)-2-ethyl-5-(2,2,2-trifluoroethoxy)phenyl)piperidin-4-yl)piperazin-1-yl)ethyl)piperidin-1-yl)-2,6-difluorophenyl)piperidine-2,6-dione] are 8 nM and 72%.
The corresponding values for `CCc1cc(Nc2ncc(Br)c(Nc3cnc4ccccc4c3P(C)(C)=O)n2)c(OCC(F)(F)F)cc1N1CCC(N2CCN(CCc3cc(F)c(C4CCC(=O)NC4=O)c(F)c3)CC2)CC1` (stereo not shown) [Example 187, 3-(4-(2-(4-(1-(4-((5-bromo-4-((4-(dimethylphosphoryl)quinolin-3-yl)amino)pyrimidin-2-yl)amino)-2-ethyl-5-(2,2,2-trifluoroethoxy)phenyl)piperidin-4-yl)piperazin-1-yl)ethyl)-2,6-difluorophenyl)piperidine-2,6-dione] are 3.3 nM and 69%.
`CCc1cc(Nc2ncc(Br)c(Nc3cnc4ccccc4c3P(C)(C)=O)n2)c(OC)cc1N1CCC(N2CCN(CCc3cccc4c3oc(=O)n4C3CCC(=O)NC3=O)CC2)CC1` (stereo not shown) [Example 188, 3-(7-(2-(4-(1-(4-((5-bromo-4-((4-(dimethylphosphoryl)quinolin-3-yl)amino)pyrimidin-2-yl)amino)-2-ethyl-5-methoxyphenyl)piperidin-4-yl)piperazin-1-yl)ethyl)-2-oxobenzo[d]oxazol-3(2H)-yl)piperidine-2,6-dione]: the DC50 stood at 0.8 nM and the “H1975-clone#28 DTC Dmax (%)” value amounted to 84%.
For the compound `CCc1cc(Nc2ncc(Br)c(Nc3cnc4ccccc4c3P(C)(C)=O)n2)c(OC)cc1N1CCC(N2CCN(C(=O)CN(C)c3cc(F)c(C4CCC(=O)NC4=O)c(F)c3)CC2)CC1` (stereo not shown) [Example 189, 3-(4-((2-(4-(1-(4-((5-bromo-4-((4-(dimethylphosphoryl)quinolin-3-yl)amino)pyrimidin-2-yl)amino)-2-ethyl-5-methoxyphenyl)piperidin-4-yl)piperazin-1-yl)-2-oxoethyl)(methyl)amino)-2,6-difluorophenyl)piperidine-2,6-dione], the DC50 amounted to 2.4 nM and the “H1975-clone#28 DTC Dmax (%)” value is given as 77%.

The values are drawn from patent publication US20240165243A1, “EGFR DEGRADERS AND METHODS OF USE” (BeiGene Switzerland GmbH, priority 2021, published 2024).
